Measurements as given in publication PMC3388044, “Probing of Exosites Leads to Novel Inhibitor Scaffolds of HCV NS3/4A Proteinase” (PLoS ONE, 2012).

Tests used:
[1] = tested on: sub-genomic HCV RNA replicon; assay: HCV replicon inhibition assay, luciferase reporter in Huh7 ET cells; format: cell-based; conditions: 72 h; for IC50: concentration reducing viral replication by 50%; for IC90: concentration reducing viral replication by 90%
Procedure: To support our in vitro data, the inhibition of HCV RNA replication was then measured using human hepatocarcinoma Huh7 ET cells. These cells express a sub-genomic HCV RNA replicon with a stable luciferase reporter. The replicon contains the 5′-end Internal Ribosome Entry Site (IRES) of HCV which drives the production of a firefly luciferase, ubiquitin, and neomycin phosphotransferase (Neo) fusion protein. Ubiquitin cleavage releases the luciferase and Neo proteins. The IRES element encephalomyocarditis virus controls the translation of the HCV […] proteins NS3-NS5 in the replicon. The NS3 protein cleaves the synthesized HCV polyprotein to release the mature NS3, NS4A, NS4B, NS5A and NS5B proteins that are required for HCV replication. The authentic 3′-end non-translating region of HCV is localized at the 3′-end of the replicon. As a result, the activity of the luciferase reporter is directly proportional to HCV RNA levels and positive control antiviral compounds behave comparably using either luciferase or RNA endpoints.
Human interferon α2b was used as a control.

[2] = biological target: T1, NS3/4A A156T (Hepatitis C virus genotype 1b, UniProt O92972, A1182T); format: biochemical, HCV genotype 1b, strain HC-J4; conditions: for IC50: recombinant A156T mutant, FRET peptide substrate; for effect of A156T resistance mutation on efficacy: in contrast with boceprevir and telaprevir
T1 construct: The NS3/4A construct represented the individual NS3 proteinase domain N-terminally fused with an NS4A co-factor; 6xHis; purchased AnaSpec (Fremont, CA)
Description: (§1) Reagents were purchased from Sigma unless indicated otherwise. The FRET substrate Ac-DE-D(Edans)-EE-Abu-ψ-[COO]-AS-K(Dabsyl)-NH2, purified recombinant wild-type NS3/4A from HCV genotype 1b, strain HC-J4, and the mutants with the V36M, R155K, A156T, D168A and V170A resistance mutations were from AnaSpec (Fremont, CA). The NS3/4A construct represented the individual NS3 proteinase domain N-terminally fused with an NS4A co-factor and tagged with a 6xHis tag. […] Pyroglutamic acid-Arg-Thr-Lys-Arg-7-amino-4-methylcoumarin was from Peptides International (Louisville, KY). West Nile virus NS2B-NS3 proteinase (strain NY99) was expressed, purified and refolded to restore its functional activity as described earlier. The pET15b-Den2-CF40-Gly-NS3pro 185 plasmid encoding the Dengue virus type 2 NS2B-NS3 protease was a kind gift of Dr. Subhash Vasudevan (Program in Emerging Infectious Diseases, DUKE-NUS Graduate Medical School, Singapore). DV NS2B-NS3 proteinase was expressed purified and refolded to restore its functional activity as described previously, [70]. The expression of the soluble C-terminally truncated human furin construct in Sf9 insect cells (an ovarian cell line from fall armyworm Spodoptera frugiperda; Invitrogen, Carlsbad, CA) infected with the recombinant baculovirus and purification of soluble furin from the medium were described earlier. Original human hepatocarcinoma Huh7 cells were obtained from ATCC (Manassas, VA).
(§2) The NS3/4A activity assay was performed at 37°C in triplicate in wells of a 96-well plate in 0.2 ml 50 mM HEPES, pH 7.5, containing 100 mM NaCl, 10 mM DTT, 20% glycerol, the Ac-DE-D(Edans)-EE-Abu-ψ-[COO]-AS-K(Dabsyl)-NH2 substrate (10 µM) and the NS3/4A enzyme (10 nM). Reaction velocity was monitored continuously at λex = 355 nm and λem = 500 nm for 10 min using a Spectramax Gemini EM fluorescence spectrophotometer (Molecular Devices, Sunnyvale, CA) and the initial rate of reaction v was recorded for each reaction. […] Compound stock solutions (10 mM) were made in 100% DMSO. Stocks were then diluted using the assay buffer. As a result, the final DMSO concentration was always below 1% in the assay reactions.
(§3) To measure the inhibitory potency of the compounds, their increasing concentrations were pre-incubated with the individual proteinases in the corresponding buffer for 30 min at ambient temperature. At least, 7–9 different concentrations were used for each inhibitor. The residual activity of the enzymes was then measured as above. The IC50 values of the inhibitory compounds were calculated by determining the concentrations of the compounds needed to inhibit 50% of the enzyme activity against the peptide substrate. GraphPad Prism was used as fitting software.

[3] = tested on: NS3/4A A156T; format: biochemical, HCV genotype 1b, strain HC-J4; conditions: fold change in IC50 for the mutant compared to WT
Description: as §1, §2, §3

[4] = biological target: T2, NS3/4A D168A (Hepatitis C virus genotype 1b, UniProt O92972, D1194A); format: biochemical, HCV genotype 1b, strain HC-J4; conditions: recombinant D168A mutant, FRET peptide substrate
T2 construct: The NS3/4A construct represented the individual NS3 proteinase domain N-terminally fused with an NS4A co-factor; 6xHis; purchased AnaSpec (Fremont, CA)
Description: as §1, §2, §3

[5] = tested on: NS3/4A D168A; format: biochemical, HCV genotype 1b, strain HC-J4; conditions: fold change in IC50 for the mutant compared to WT
Description: as §1, §2, §3

[6] = biological target: T3, NS3/4A R155K (Hepatitis C virus genotype 1b, UniProt O92972, R1181K); format: biochemical, HCV genotype 1b, strain HC-J4; conditions: recombinant R155K mutant, FRET peptide substrate
T3 construct: The NS3/4A construct represented the individual NS3 proteinase domain N-terminally fused with an NS4A co-factor; 6xHis; purchased AnaSpec (Fremont, CA)
Description: as §1, §2, §3

[7] = tested on: NS3/4A R155K; format: biochemical, HCV genotype 1b, strain HC-J4; conditions: fold change in IC50 for the mutant compared to WT
Description: as §1, §2, §3

[8] = biological target: T4, NS3/4A V36M (Hepatitis C virus genotype 1b, UniProt O92972, V1062M); format: biochemical, HCV genotype 1b, strain HC-J4; conditions: recombinant V36M mutant, FRET peptide substrate
T4 construct: The NS3/4A construct represented the individual NS3 proteinase domain N-terminally fused with an NS4A co-factor; 6xHis; purchased AnaSpec (Fremont, CA)
Description: as §1, §2, §3

[9] = tested on: NS3/4A V36M; format: biochemical, HCV genotype 1b, strain HC-J4; conditions: fold change in IC50 for the mutant compared to WT
Description: as §1, §2, §3

Work on O=C(Nc1ccccc1)c1cc(S(=O)(=O)Nc2nc3ncccc3[nH]2)c(SSc2cc(Cl)c(C(=O)Nc3ccccc3)cc2S(=O)(=O)Nc2nc3ncccc3[nH]2)cc1Cl [Compound 1] yielded an IC50 [1] greater than 100 µM, an IC90 [1] greater than 100 µM and an IC50 [2] of 0.72 µM. For the same compound, the “NS3/4A A156T FC” value [3] was 3.93, the IC50 [4] was 0.25 µM and the “NS3/4A D168A FC” value [5] was 1.4. For the same compound, the IC50 [6] was 1.75 µM, the “NS3/4A R155K FC” value [7] was 9.6 and the IC50 [8] was 260 nM. The “NS3/4A V36M FC” value [9] was 1.4.

Clc1ccc(OCc2nn3c(CCc4nnc5sc(COc6ccc(Cl)cc6)nn45)nnc3s2)cc1 [Compound 2] showed an IC50 [1] of 10 µM, an IC90 [1] of 25.2 µM and an IC50 [2] of 17.3 µM. The “NS3/4A A156T FC” value [3] was 57.57, the IC50 [4] was 4.45 µM and the “NS3/4A D168A FC” value [5] was 14.8. The IC50 [6] was 5.84 µM, the “NS3/4A R155K FC” value [7] was 19.5 and the IC50 [8] was 1530 nM. The “NS3/4A V36M FC” value [9] was 5.1.

Compound Cc1n[nH]c(=S)n1Nc1nc(SCc2ccccc2)nc2n[nH]c(Cc3nn[nH]n3)c12 [Compound 3] has an IC50 [1] greater than 100 µM, an IC90 [1] greater than 100 µM and an IC50 [2] of 16.2 µM. The “NS3/4A A156T FC” value [3] was 45.14, the IC50 [4] was 8.4 µM and the “NS3/4A D168A FC” value [5] was 23.3. The IC50 [6] was 5.53 µM, the “NS3/4A R155K FC” value [7] was 15.4 and the IC50 [8] was 1670 nM. For the same compound, the “NS3/4A V36M FC” value [9] was 4.6.

Oc1ccccc1-c1nnc2sc3c(Cl)c4nn5c(-c6ccccc6O)nnc5sc4c(Cl)c3nn12 [Compound 4] gave an IC50 [1] of 28 µM, an IC90 [1] of 99.4 µM and an IC50 [2] of 6.54 µM. For the same compound, the “NS3/4A A156T FC” value [3] was 18.17, the IC50 [4] was 3.35 µM and the “NS3/4A D168A FC” value [5] was 9.3. The IC50 [6] was 3.73 µM, the “NS3/4A R155K FC” value [7] was 10.4 and the IC50 [8] was 340 nM. For the same compound, the “NS3/4A V36M FC” value [9] was 0.9.

Clc1ccc(Nc2nc(SCc3ccccc3)nc3n[nH]c(Cc4nc5ccccc5s4)c23)cc1 [Compound 5] gave an IC50 [1] greater than 100 µM, an IC90 [1] greater than 100 µM and an IC50 [2] of 18.6 µM. For the same compound, the “NS3/4A A156T FC” value [3] was 48.95, the IC50 [4] was 12.7 µM and the “NS3/4A D168A FC” value [5] was 33.4. For the same compound, the IC50 [6] was 9.64 µM, the “NS3/4A R155K FC” value [7] was 25.4 and the IC50 [8] was 1070 nM. For the same compound, the “NS3/4A V36M FC” value [9] was 2.8.

For S=c1[nH]nc(Nc2nc(SCc3ccccc3)nc3n[nH]c(Cc4nn[nH]n4)c23)s1 [Compound 6], the IC50 [1] was greater than 100 µM, the IC90 [1] was greater than 100 µM and the “effect of A156T resistance mutation on efficacy” value [2] was “not affected”. For the same compound, the IC50 [2] was 3.08 µM, the “NS3/4A A156T FC” value [3] was 3.24 and the IC50 [4] was 1.21 µM. For the same compound, the “NS3/4A D168A FC” value [5] was 1.3, the IC50 [6] was 2.29 µM and the “NS3/4A R155K FC” value [7] was 2.4. The IC50 [8] was 990 nM and the “NS3/4A V36M FC” value [9] was 1.04.

For S=c1[nH]n2c(COc3cc(Cl)c(OCc4nnc5sc(=S)[nH]n45)cc3Cl)nnc2s1 [Compound 7], the IC50 [1] was 9.95 µM, the IC90 [1] was 54.4 µM and the “effect of A156T resistance mutation on efficacy” value [2] was “not affected”. For the same compound, the IC50 [2] was 1.12 µM, the “NS3/4A A156T FC” value [3] was 0.9 and the IC50 [4] was 1.28 µM. The “NS3/4A D168A FC” value [5] was 1, the IC50 [6] was 2.03 µM and the “NS3/4A R155K FC” value [7] was 1.6. The IC50 [8] was 1400 nM and the “NS3/4A V36M FC” value [9] was 1.1.

With COc1cc(C2C(C(=O)Nc3ccc(Cl)c(Cl)c3)=C(C)NC(C)=C2C(=O)Nc2ccc(Cl)c(Cl)c2)ccc1O [Compound 8] the IC50 [1] was 13.6 µM, the IC90 [1] was 19.2 µM and the IC50 [2] was 17.7 µM. The “NS3/4A A156T FC” value [3] was 9.2, the IC50 [4] was 3.02 µM and the “NS3/4A D168A FC” value [5] was 1.6. The IC50 [6] was 10.9 µM, the “NS3/4A R155K FC” value [7] was 5.7 and the IC50 [8] was 1840 nM. The “NS3/4A V36M FC” value [9] was 0.96.
